From patent publication US8329904B2, “Azacyclic derivatives” (Hoffmann-La Roche Inc., priority 2009, dated 2012)

What follows are molecules tested against T1, human HSL (Homo sapiens, UniProt Q05469) (assay: Human Hormone-Sensitive Lipase (HSL) Enzyme Inhibition Assay). Settings: colorimetric assay, 2,3-dimercapto-1-propanol tributyrate (DMPT) substrate, 37° C. for 20 minutes, absorbance at 405 nm; read-out: HSL hum IC50.
T1 construct: overlapping PCR to generate a full length human HSL ORF with a 3′-His6 tag; His6 (C); made in house; host or cells: High 5 insect cells (baculovirus, pFast-BAC)
T1 sequence (Q05469 1-1076): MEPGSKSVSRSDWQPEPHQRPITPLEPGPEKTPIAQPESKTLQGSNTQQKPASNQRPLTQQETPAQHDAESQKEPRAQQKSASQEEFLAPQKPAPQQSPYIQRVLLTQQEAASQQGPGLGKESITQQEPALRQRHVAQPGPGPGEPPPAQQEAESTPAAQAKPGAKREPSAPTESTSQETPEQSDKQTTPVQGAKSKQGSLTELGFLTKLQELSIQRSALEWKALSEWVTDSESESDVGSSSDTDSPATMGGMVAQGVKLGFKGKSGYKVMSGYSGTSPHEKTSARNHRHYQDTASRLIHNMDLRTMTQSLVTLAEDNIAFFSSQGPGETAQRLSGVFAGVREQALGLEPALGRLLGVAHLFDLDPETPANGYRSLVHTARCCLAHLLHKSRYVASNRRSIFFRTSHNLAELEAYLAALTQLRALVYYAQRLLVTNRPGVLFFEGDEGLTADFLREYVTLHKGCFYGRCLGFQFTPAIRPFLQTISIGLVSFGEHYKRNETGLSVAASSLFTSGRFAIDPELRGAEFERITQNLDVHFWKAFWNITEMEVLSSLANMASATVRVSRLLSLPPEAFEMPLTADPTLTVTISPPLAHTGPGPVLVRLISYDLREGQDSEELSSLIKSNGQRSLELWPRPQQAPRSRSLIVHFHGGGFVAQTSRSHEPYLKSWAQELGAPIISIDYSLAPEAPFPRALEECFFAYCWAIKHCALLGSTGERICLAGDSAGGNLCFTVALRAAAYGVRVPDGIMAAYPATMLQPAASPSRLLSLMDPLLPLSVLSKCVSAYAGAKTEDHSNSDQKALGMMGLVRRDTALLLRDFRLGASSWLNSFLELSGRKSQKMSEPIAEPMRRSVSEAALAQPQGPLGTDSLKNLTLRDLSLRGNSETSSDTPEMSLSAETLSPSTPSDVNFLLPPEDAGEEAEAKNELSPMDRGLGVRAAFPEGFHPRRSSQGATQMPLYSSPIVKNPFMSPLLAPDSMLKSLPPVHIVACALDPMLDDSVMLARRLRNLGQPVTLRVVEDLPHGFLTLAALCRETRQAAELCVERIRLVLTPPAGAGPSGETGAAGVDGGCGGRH
Format: biochemical
Procedure, shortened: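 Colorimetric thioester hydrolysis: compounds in DMSO series mixed with DMPT (1.5 mM) in MOPS pH 7.2 with BSA, then baculovirus-expressed His6-tagged full-length human HSL added, 37° C, 20 min. DTNB plus detergents added, 15 min room temperature, absorbance at 405 nm.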

Row | Structure (SMILES) | IC50 [nM]
1 | O=C1N(c2ccc(OC(F)(F)F)cc2)CCC12CCN(S(=O)(=O)C1CC1)CC2 [Example 96, 8-Cyclopropanesulfonyl-2-(4-trifluoromethoxy-phenyl)-2,8-diaza-spiro[4.5]decan-1-one] | 130
2 | Cc1noc(C)c1S(=O)(=O)N1CCC2(CCN(c3ccc(OC(C)C(F)(F)F)cc3)C2=O)CC1 (stereo not shown) [Example 97, 8-(3,5-Dimethyl-isoxazole-4-sulfonyl)-2-[4-(2,2,2-trifluoro-1-methyl-ethoxy)-phenyl]-2,8-diaza-spiro[4.5]decan-1-one] | 110
3 | CC(Oc1ccc(N2CCC3(CCN(S(=O)(=O)C4CC4)CC3)C2=O)cc1)C(F)(F)F (stereo not shown) [Example 98, 8-Cyclopropanesulfonyl-2-[4-(2,2,2-trifluoro-1-methyl-ethoxy)-phenyl]-2,8-diaza-spiro[4.5]decan-1-one] | 170
4 | CC(Oc1ccc(N2CCC3(CCN(S(=O)(=O)c4ccccc4OC(F)(F)F)CC3)C2=O)cc1)C(F)(F)F (stereo not shown) [Example 99, 8-(2-Trifluoromethoxy-benzenesulfonyl)-2-[4-(2,2,2-trifluoro-1-methyl-ethoxy)-phenyl]-2,8-diaza-spiro[4.5]decan-1-one] | 30
5 | CC(Oc1ccc(N2CCC3(CCN(S(=O)(=O)c4ccccc4C(F)(F)F)CC3)C2=O)cc1)C(F)(F)F (stereo not shown) [Example 100, 8-(2-Trifluoromethyl-benzenesulfonyl)-2-[4-(2,2,2-trifluoro-1-methyl-ethoxy)-phenyl]-2,8-diaza-spiro[4.5]decan-1-one] | 40
6 | CC(Oc1ccc(N2CCC3(CCN(S(=O)(=O)c4ccccc4C(F)(F)F)CC3)C2=O)cc1)C(F)(F)F (stereo not shown) [Example 101] | 40
7 | CC(C)CS(=O)(=O)N1CCC2(CCN(c3ccc(OCCC(F)(F)F)cc3)C2=O)CC1 [Example 102, 8-(2-Methyl-propane-1-sulfonyl)-2-[4-(3,3,3-trifluoro-propoxy)-phenyl]-2,8-diaza-spiro[4.5]decan-1-one] | 360
8 | O=C1N(c2ccc(OCCC(F)(F)F)cc2)CCC12CCN(S(=O)(=O)c1ccccc1OC(F)(F)F)CC2 [Example 103, 8-(2-Trifluoromethoxy-benzenesulfonyl)-2-[4-(3,3,3-trifluoro-propoxy)-phenyl]-2,8-diaza-spiro[4.5]decan-1-one] | 50
9 | COCCCOc1ccc(N2CCC3(CCN(S(=O)(=O)CC(C)C)CC3)C2=O)cc1 [Example 107, 2-[4-(3-Methoxy-propoxy)-phenyl]-8-(2-methyl-propane-1-sulfonyl)-2,8-diaza-spiro[4.5]decan-1-one] | 740
10 | COCC(C)(C)c1ccc(N2CCC3(CCN(S(=O)(=O)CC(C)C)CC3)C2=O)cc1 [Example 108, 2-[4-(2-Methoxy-1,1-dimethyl-ethyl)-phenyl]-8-(2-methyl-propane-1-sulfonyl)-2,8-diaza-spiro[4.5]decan-1-one] | 100
11 | COCCCOc1ccc(N2CCC3(CCN(S(=O)(=O)c4ccccc4OC(F)(F)F)CC3)C2=O)cc1 [Example 109, 2-[4-(3-Methoxy-propoxy)-phenyl]-8-(2-trifluoromethoxy-benzenesulfonyl)-2,8-diaza-spiro[4.5]decan-1-one] | 40
12 | Cc1noc(C)c1S(=O)(=O)N1CCC2(CCN(c3ccc(OC(C)C)cc3)C2=O)CC1 [Example 111, 8-(3,5-Dimethyl-isoxazole-4-sulfonyl)-2-(4-isopropoxy-phenyl)-2,8-diaza-spiro[4.5]decan-1-one] | 110
13 | COCC(C)(C)c1ccc(N2CCC3(CCN(S(=O)(=O)c4c(C)noc4C)CC3)C2=O)cc1 [Example 112, 8-(3,5-Dimethyl-isoxazole-4-sulfonyl)-2-[4-(2-methoxy-1,1-dimethyl-ethyl)-phenyl]-2,8-diaza-spiro[4.5]decan-1-one] | 270
14 | CC(Oc1ccc(N2CCC3(CCN(C(=O)C4(C)CC4(Cl)Cl)CC3)C2=O)cc1)C(F)(F)F (stereo not shown) [Example 113, 8-(2,2-Dichloro-1-methyl-cyclopropanecarbonyl)-2-[4-(2,2,2-trifluoro-1-methyl-ethoxy)-phenyl]-2,8-diaza-spiro[4.5]decan-1-one] | 140
15 | CC(C)(C)CC(=O)N1CCC2(CC1)CCN(c1ccc(OCC(F)(F)F)cc1)C2=O [Example 120, 8-(3,3-Dimethyl-butyryl)-2-[4-(2,2,2-trifluoro-ethoxy)-phenyl]-2,8-diaza-spiro[4.5]decan-1-one] | 600
16 | CC1(C(=O)N2CCC3(CC2)CCN(c2ccc(OCC(F)(F)F)cc2)C3=O)CC1(Cl)Cl (stereo not shown) [Example 121, 8-(2,2-Dichloro-1-methyl-cyclopropanecarbonyl)-2-[4-(2,2,2-trifluoro-ethoxy)-phenyl]-2,8-diaza-spiro[4.5]decan-1-one] | 200
17 | CC(Oc1ccc(N2CCC3(CCN(C(=O)CC(C)(C)C)CC3)C2=O)cc1)C(F)(F)F (stereo not shown) [Example 123, 8-(3,3-Dimethyl-butyryl)-2-[4-(2,2,2-trifluoro-1-methyl-ethoxy)-phenyl]-2,8-diaza-spiro[4.5]decan-1-one] | 250
18 | CCn1cc2cc(N3CCC4(CCN(S(=O)(=O)c5ccccc5Cl)CC4)C3=O)ccc2n1 [Example 124, 8-(2-Chloro-benzenesulfonyl)-2-(2-ethyl-2H-indazol-5-yl)-2,8-diaza-spiro[4.5]decan-1-one] | 60

More lines, now with the values ahead:

Row | IC50 [nM] | Structure (SMILES)
19 | 40 | O=C1N(c2ccc(I)cc2)CCC12CCN(S(=O)(=O)c1ccccc1OC(F)(F)F)CC2 [Example 104, 2-(4-Iodo-phenyl)-8-(2-trifluoromethoxy-benzenesulfonyl)-2,8-diaza-spiro[4.5]decan-1-one]
20 | 20 | COCCc1ccc(N2CCC3(CCN(S(=O)(=O)c4ccccc4OC(F)(F)F)CC3)C2=O)cc1 [Example 105, 2-[4-(2-Methoxy-ethyl)-phenyl]-8-(2-trifluoromethoxy-benzenesulfonyl)-2,8-diaza-spiro[4.5]decan-1-one]
21 | 40 | COCCOc1ccc(N2CCC3(CCN(S(=O)(=O)c4ccccc4OC(F)(F)F)CC3)C2=O)cc1 [Example 106, 2-[4-(2-Methoxy-ethoxy)-phenyl]-8-(2-trifluoromethoxy-benzenesulfonyl)-2,8-diaza-spiro[4.5]decan-1-one]
22 | 30 | COCC(C)(C)c1ccc(N2CCC3(CCN(S(=O)(=O)c4ccccc4OC(F)(F)F)CC3)C2=O)cc1 [Example 110, 2-[4-(2-Methoxy-1,1-dimethyl-ethyl)-phenyl]-8-(2-trifluoromethoxy-benzenesulfonyl)-2,8-diaza-spiro[4.5]decan-1-one]
23 | 30 | O=C1N(c2ccc(OCC(F)(F)F)cc2)CCC12CCN(S(=O)(=O)c1ccccc1Cl)CC2 [Example 115, 8-(2-Chloro-benzenesulfonyl)-2-[4-(2,2,2-trifluoro-ethoxy)-phenyl]-2,8-diaza-spiro[4.5]decan-1-one]
24 | 110 | O=C1N(c2ccc(OCCC(F)(F)F)nc2)CCC12CCN(S(=O)(=O)c1ccccc1Cl)CC2 [Example 116, 8-(2-Chloro-benzenesulfonyl)-2-[6-(3,3,3-trifluoro-propoxy)-pyridin-3-yl]-2,8-diaza-spiro[4.5]decan-1-one]
25 | 60 | O=C1N(c2ccc(OCC(F)(F)F)nc2)CCC12CCN(S(=O)(=O)c1ccccc1)CC2 [Example 117, 8-Benzenesulfonyl-2-[6-(2,2,2-trifluoro-ethoxy)-pyridin-3-yl]-2,8-diaza-spiro[4.5]decan-1-one]
26 | 470 | O=C1N(c2cnc(OCC(F)(F)F)nc2)CCC12CCN(S(=O)(=O)c1ccccc1)CC2 [Example 118, 8-Benzenesulfonyl-2-[2-(2,2,2-trifluoro-ethoxy)-pyrimidin-5-yl]-2,8-diaza-spiro[4.5]decan-1-one]
27 | 50 | O=C1N(c2ccc(OCC(F)(F)F)nc2)CCC12CCN(S(=O)(=O)c1ccccc1Cl)CC2 [Example 119, 8-(2-Chloro-benzenesulfonyl)-2-[6-(2,2,2-trifluoro-ethoxy)-pyridin-3-yl]-2,8-diaza-spiro[4.5]decan-1-one]
28 | 540 | CC(C)(C)CC(=O)N1CCC2(CC1)CCN(c1ccc(OCC(F)(F)F)nc1)C2=O [Example 122, 8-(3,3-Dimethyl-butyryl)-2-[6-(2,2,2-trifluoro-ethoxy)-pyridin-3-yl]-2,8-diaza-spiro[4.5]decan-1-one]
